Earlier results as cited in patent US20050201949A1, “Pharmaceutical formulations” (priority 2003, published 2005).
Where a name gives a salt, the structure may show the parent alone.

Conditions: solid tablets with a lactose excipient; Maillard reaction postulated

## CNCCC(Oc1ccc(C(F)(F)F)cc1)c1ccccc1 (stereo not shown) [fluoxetine hydrochloride]
  Degradation in the presence of lactose excipient: undergoes degradation
